Source: patent US9999619B2, “Piperidin-4-yl azetidine derivatives as JAK1 inhibitors” (Incyte Corporation, priority 2010, dated 2018)
Structures can show the parent of a compound that is named as a salt.

Columns and labels:
Type in all cases: biochemical
Jak2 (a.a. 828-1132) = Jak2 (a.a. 828-1132) (Homo sapiens (Human), UniProt O60674); assay: In vitro JAK kinase assay (HTRF, phosphorylation of a biotinylated peptide), JAK2; conditions: measured at 1 mM ATP
How it was run: (§1)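 Phosphorylation of a biotinylated peptide by purified His-tagged JAK catalytic domains (insect-cell baculovirus expression) ran 1 hr at room temperature. After stopping with EDTA, Eu-Py20 and SA-APC were bound for 40 minutes and HTRF measured.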

[1] = target: human JAK1 (a.a. 837-1142); assay: In vitro JAK kinase assay (HTRF, phosphorylation of a biotinylated peptide), JAK1; conditions: ratio of JAK2 IC50 to JAK1 IC50, measured at 1 mM ATP
How it was run: as §1

[2] = target: human JAK1 (a.a. 837-1142) (Homo sapiens, UniProt P23458); assay: as above; conditions: measured at 1 mM ATP
How it was run: as §1

Sequence of Jak2 (a.a. 828-1132) (O60674 828-1132): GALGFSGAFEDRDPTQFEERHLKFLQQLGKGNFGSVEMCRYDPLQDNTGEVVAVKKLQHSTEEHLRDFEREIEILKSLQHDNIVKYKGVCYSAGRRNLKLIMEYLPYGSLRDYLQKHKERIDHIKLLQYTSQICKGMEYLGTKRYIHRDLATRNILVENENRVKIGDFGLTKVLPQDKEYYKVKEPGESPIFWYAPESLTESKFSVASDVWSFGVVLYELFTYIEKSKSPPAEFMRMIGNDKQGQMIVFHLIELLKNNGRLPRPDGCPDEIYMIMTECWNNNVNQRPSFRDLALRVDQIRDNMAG

Row | SMILES | IC50 (Jak2 (a.a. 828-1132)) | IC50 Ratio JAK2/JAK1 [1] | IC50 [2]
1 | COC(=O)c1ccccc1NC(=O)N1CCC(N2CC(CC#N)(n3cc(-c4ncnc5[nH]ccc45)cn3)C2)CC1 [Example 206, methyl 2-{[(4-{3-(cyanomethyl)-3-[4-(7H-pyrrolo[2,3-d]pyrimidin-4-yl)-1H-pyrazol-1-yl]azetidin-1-yl}piperidin-1-yl)carbonyl]amino}benzoate] | ≤ 10 nM | 1.6 | ≤ 5 nM
2 | N#CCC1(n2ccc(-c3ncnc4[nH]ccc34)c2)CN(C2CCN(C(=O)c3cnc(C(F)(F)F)cn3)CC2)C1 [Example 347, [3-[3-(7H-Pyrrolo[2,3-d]pyrimidin-4-yl)-1H-pyrrol-1-yl]-1-(1-{[5-(trifluoromethyl)pyrazin-2-yl]carbonyl}piperidin-4-yl)azetidin-3-yl]acetonitrile] | 10 to 50 nM | 2.7 | 5 to 20 nM
3 | N#CCC1(n2cc(-c3ncnc4[nH]ccc34)cn2)CN(C2CCN(C(=O)c3cccc(F)c3)CC2)C1 [Example 25, {1-[1-(3-fluorobenzoyl)piperidin-4-yl]-3-[4-(7H-pyrrolo[2,3-d]pyrimidin-4-yl)-1H-pyrazol-1-yl]azetidin-3-yl}acetonitrile] | 10 to 50 nM | 5.8 | ≤ 5 nM
4 | N#CCC1(n2cc(-c3ncnc4[nH]ccc34)cn2)CN(C2CCN(C(=O)c3cccc(C(F)(F)F)c3F)CC2)C1 [Example 7, {1-{1-[2-fluoro-3-(trifluoromethyl)benzoyl]piperidin-4-yl}-3-[4-(7H-pyrrolo[2,3-d]pyrimidin-4-yl)-1H-pyrazol-1-yl]azetidin-3-yl}acetonitrile] | ≤ 10 nM | 10.8 | ≤ 5 nM
5 | CN(C)Cc1cc(C(=O)N2CCC(N3CC(CC#N)(n4cc(-c5ncnc6[nH]ccc56)cn4)C3)CC2)c(F)c(C(F)(F)F)n1 [Example 368, {1-{1-[6-[(dimethylamino)methyl]-3-fluoro-2-(trifluoromethyl)isonicotinoyl]piperidin-4-yl}-3-[4-(7H-pyrrolo[2,3-d]pyrimidin-4-yl)-1H-pyrazol-1-yl]azetidin-3-yl}acetonitrile] | 10 to 50 nM | 54.2 | ≤ 5 nM
6 | N#CCC1(n2cc(-c3ccnc4[nH]ccc34)cn2)CN(C2CCN(C(=O)Nc3ccc(F)cc3Cl)CC2)C1 [Example 305, N-(2-chloro-4-fluorophenyl)-4-{3-(cyanomethyl)-3-[4-(1H-pyrrolo[2,3-b]pyridin-4-yl)-1H-pyrazol-1-yl]azetidin-1-yl}piperidine-1-carboxamide] | 50 to 100 nM | 16.0 | ≤ 5 nM
7 | N#CCC1(n2cc(-c3ncnc4[nH]ccc34)cn2)CN(C2CCN(C(=O)c3c(F)cncc3F)CC2)C1 [Example 61, {1-[1-(3,5-difluoroisonicotinoyl)piperidin-4-yl]-3-[4-(7H-pyrrolo[2,3-d]pyrimidin-4-yl)-1H-pyrazol-1-yl]azetidin-3-yl}acetonitrile] | 10 to 50 nM | 4.2 | 5 to 20 nM
8 | N#CCC1(n2cc(-c3ncnc4[nH]ccc34)cn2)CN(C2CCN(C(=O)c3cc(F)cc(Cl)c3)CC2)C1 [Example 28, {1-[1-(3-chloro-5-fluorobenzoyl)piperidin-4-yl]-3-[4-(7H-pyrrolo[2,3-d]pyrimidin-4-yl)-1H-pyrazol-1-yl]azetidin-3-yl}acetonitrile] | ≤ 10 nM | 8.5 | ≤ 5 nM
9 | N#CCC1(n2cc(-c3ccnc4[nH]ccc34)cn2)CN(C2CCN(C(=O)c3ccc(O)c(F)c3)CC2)C1 [Example 296, {1-[1-(3-fluoro-4-hydroxybenzoyl)piperidin-4-yl]-3-[4-(1H-pyrrolo[2,3-b]pyridin-4-yl)-1H-pyrazol-1-yl]azetidin-3-yl}acetonitrile] | 10 to 50 nM | 4.6 | ≤ 5 nM
10 | N#CCC1(n2cc(-c3ncnc4[nH]ccc34)cn2)CN(C2CCN(C(=O)c3sc(C(F)(F)F)cc3O)CC2)C1 [Example 71, {1-{1-[3-hydroxy-5-(trifluoromethyl)-2-thienylcarbonyl]piperidin-4-yl}-3-[4-(7H-pyrrolo[2,3-d]pyrimidin-4-yl)-1H-pyrazol-1-yl]azetidin-3-yl}acetonitrile] | 50 to 100 nM | 4.4 | 20 to 30 nM
11 | N#CCC1(n2ccc(-c3ncnc4[nH]ccc34)c2)CN(C2CCN(C(=O)c3cc(OC(F)(F)F)ccc3F)CC2)C1 [Example 269, {1-{1-[2-fluoro-5-(trifluoromethoxy)benzoyl]piperidin-4-yl}-3-[3-(7H-pyrrolo[2,3-d]pyrimidin-4-yl)-1H-pyrrol-1-yl]azetidin-3-yl}acetonitrile] | 10 to 50 nM | 5.0 | ≤ 5 nM
12 | N#CCC1(n2cc(-c3ccnc4[nH]ccc34)cn2)CN(C2CCN(C(=O)c3ccc(C#N)cc3F)CC2)C1 [Example 295, 4-[(4-{3-(cyanomethyl)-3-[4-(1H-pyrrolo[2,3-b]pyridin-4-yl)-1H-pyrazol-1-yl]azetidin-1-yl}piperidin-1-yl)carbonyl]-3-fluorobenzonitrile] | 10 to 50 nM | 5.1 | 5 to 20 nM
13 | N#CCC1(n2cc(-c3ccnc4[nH]ccc34)cn2)CN(C2CCN(C(=O)Nc3ccccc3F)CC2)C1 [Example 309, 4-{3-(cyanomethyl)-3-[4-(1H-pyrrolo[2,3-b]pyridin-4-yl)-1H-pyrazol-1-yl]azetidin-1-yl}-N-(2-fluorophenyl)piperidine-1-carboxamide] | 10 to 50 nM | 5.3 | 5 to 20 nM
14 | CN(C)Cc1cc(C(=O)N2CCC(N3CC(CC#N)(n4cc(-c5ncnc6[nH]ccc56)cn4)C3)CC2)nc(C(F)(F)F)n1 [Example 370, {1-(1-{[6-[(dimethylamino)methyl]-2-(trifluoromethyl)pyrimidin-4-yl]carbonyl}piperidin-4-yl)-3-[4-(7H-pyrrolo[2,3-d]pyrimidin-4-yl)-1H-pyrazol-1-yl]azetidin-3-yl}acetonitrile] | 50 to 100 nM | 55 | ≤ 5 nM
15 | CNCc1cc(C(=O)N2CCC(N3CC(CC#N)(n4cc(-c5ncnc6[nH]ccc56)cn4)C3)CC2)nc(C(F)(F)F)n1 [Example 371, {1-(1-{[6-[(methylamino)methyl]-2-(trifluoromethyl)pyrimidin-4-yl]carbonyl}piperidin-4-yl)-3-[4-(7H-pyrrolo[2,3-d]pyrimidin-4-yl)-1H-pyrazol-1-yl]azetidin-3-yl}acetonitrile trifluoroacetate salt] | 50 to 100 nM | 65.3 | ≤ 5 nM
16 | N#CCC1(n2cc(-c3ncnc4[nH]ccc34)cn2)CN(C2CCN(Cc3ccc4c(c3)OCCO4)CC2)C1 [Example 234, {1-[1-(2,3-dihydro-1,4-benzodioxin-6-ylmethyl)piperidin-4-yl]-3-[4-(7H-pyrrolo[2,3-d]pyrimidin-4-yl)-1H-pyrazol-1-yl]azetidin-3-yl}acetonitrile] | 10 to 50 nM | 4.2 | ≤ 5 nM
17 | CN(C)c1ccc(C(=O)N2CCC(N3CC(CC#N)(n4cc(-c5ncnc6[nH]ccc56)cn4)C3)CC2)cc1C#N [Example 59, 5-[(4-{3-(cyanomethyl)-3-[4-(7H-pyrrolo[2,3-d]pyrimidin-4-yl)-1H-pyrazol-1-yl]azetidin-1-yl}piperidin-1yl)carbonyl]-2-(dimethylamino)benzonitrile] | ≤ 10 nM | 4.6 | ≤ 5 nM
18 | N#CCC1(n2cc(-c3ncnc4[nH]ccc34)cn2)CN(C2CCN(C(=O)c3cc4c(C(F)(F)F)cccc4s3)CC2)C1 [Example 93, [3-[4-(7H-pyrrolo[2,3-d]pyrimidin-4-yl)-1H-pyrazol-1-yl]-1-(1-{[4-(trifluoromethyl)-1-benzothien-2-yl]carbonyl}piperidin-4-yl)azetidin-3-yl]acetonitrile] | ≤ 10 nM | 1.5 | ≤ 5 nM
19 | N#CCC1(n2cc(-c3ncnc4[nH]ccc34)cn2)CN(C2CCN(S(=O)(=O)C3CCCC3)CC2)C1 [Example 253, {1-[1-(cyclopentylsulfonyl)piperidin-4-yl]-3-[4-(7H-pyrrolo[2,3-d]pyrimidin-4-yl)-1H-pyrazol-1-yl]azetidin-3-yl}acetonitrile] | ≤ 10 nM | 5.8 | ≤ 5 nM
20 | N#CCC1(n2cc(-c3ncnc4[nH]ccc34)cn2)CN(C2CCN(C(=O)c3cc(F)cc(Br)c3)CC2)C1 [Example 29, {1-[1-(3-bromo-5-fluorobenzoyl)piperidin-4-yl]-3-[4-(7H-pyrrolo[2,3-d]pyrimidin-4-yl)-1H-pyrazol-1-yl]azetidin-3-yl}acetonitrile] | ≤ 10 nM | 7.2 | ≤ 5 nM
21 | N#CCC1(n2cc(-c3ccnc4[nH]ccc34)cn2)CN(C2CCN(C(=O)c3ccc(O)cc3F)CC2)C1 [Example 297, {1-[1-(2-fluoro-4-hydroxybenzoyl)piperidin-4-yl]-3-[4-(1H-pyrrolo[2,3-b]pyridin-4-yl)-1H-pyrazol-1-yl]azetidin-3-yl}acetonitrile] | ≤ 10 nM | 10.0 | ≤ 5 nM
22 | N#CCC1(n2cc(-c3ncnc4[nH]ccc34)cn2)CN(C2CC3CCC(C2)N3C(=O)c2ccnc(C(F)(F)F)c2F)C1 (stereo not drawn) [Example 142, {1-{8-[3-fluoro-2-(trifluoromethyl)isonicotinoyl]-8-azabicyclo[3.2.1]oct-3-yl}-3-[4-(7H-pyrrolo[2,3-d]pyrimidin-4-yl)-1H-pyrazol-1-yl]azetidin-3-yl}acetonitrile] | ≤ 10 nM | 7.4 | ≤ 5 nM
